The values below come from patent US10111865B2 (priority 2015, dated 2018).

Structures are written as SMILES. Read-outs that look alike come from different tables or passages of the source.

The conditions of data set [1]: human, in vivo; for residual effect on Choice Reaction Time / residual effect on Critical Flicker Fusion: po.
The format of data set [2] is in vivo, human. The text has this: There was a washout of 4 days between each treatment period.
The study included healthy, male and female subjects between 18 and 45 years of age within 30% of ideal weight. The subjects in Part 1 of the study could be of either gender, but within Part 2 of the study there had to be at least 4 subjects of each gender.

Data set [3] can be described thus: Driving performance (real driving on the road) and cognitive/psychomotor test battery after evening or middle-of-the-night dosing (Example 3). The format is in vivo, human. The settings on record: for effect on memory test, body sway, DSST or critical tracking: cognitive and psychomotor test battery before driving test; for effect on driving: driving test at 9 am. The text has this:
The study participants included healthy, male and female subjects between 21 and 45 years of age, with a valid drivers license for at least 3 years.
Following a cognitive and psychomotor test battery, the driving test started at 9 am and lasted for one hour.

Data set [4] can be described thus: Daytime performance after 5-hour sleep restriction, 4-night placebo-controlled study in healthy adults (Example 4). The settings on record: 15 mg. In kind it is in vivo, human. As for the experimental part:
The study included a 2-night single-blind placebo run-in period, a 4-night double-blind treatment period during which sleep was restricted to 5 hours and a 2-night single-blind placebo run-out period. The study included healthy male and female volunteers 18 to <55 years of age.
2-night run-in period: All patients received placebo
2-night run-out period: All patients received placebo
The primary endpoints included observations based on the Multiple Sleep Latency Test (MSLT) and Slow Wave Sleep (SWS) assessment.

The conditions of data set [5]: human, in vivo.
The conditions of data set [6]: three-month efficacy study, insomnia; cited from earlier work.
Where [7] appears, read: middle-of-the-night administration (4 am; gaboxadol 15 mg, zolpidem 10 mg).

With `CCN(CC)CCN1C(=O)CN=C(c2ccccc2F)c2cc(Cl)ccc21` [Flurazepam], in data set [1], the “residual effect on Choice Reaction Time” value was “showed significant effect” and the “residual effect on Critical Flicker Fusion” value is listed as “showed significant effect”.
In the case of `Oc1noc2c1CCNC2` [gaboxadol, 4,5,6,7-tetrahydroisoxazolo [5,4-c]pyridine-3-ol], the serious adverse experiences result in data set [2] (both parts of the study) was “no serious adverse experiences”. The tolerability entry in data set [2] (single dose intravenous 5 and 10 mg) is on record as “generally well tolerated”. Further, the tolerability result in data set [2] (single dose oral 2.5 to 20 mg) was “generally well tolerated”. The “effect on memory test, body sway, DSST or critical tracking” value in data set [3] was “no effect”. Also, the tolerability result in data set [3] (evening and middle-of-the-night dose 15 mg) is recorded as “well tolerated”. For the same compound, in data set [3] (evening dose 15 mg), the “effect on driving compared with blood alcohol” value is on record as “less than the effect observed at a 0.05% blood alcohol concentration”. In data set [3] (evening treatment 15 mg), the “most frequent adverse events” value is “headache and somnolence”. The effect on driving entry in data set [3] (setting [7]) is “clinically relevant impairing effect”. The “most frequent adverse events” value in data set [3] (middle-of-the-night treatment 15 mg) was “dizziness, nausea and somnolence”. Further, in data set [1], the “residual effects on other measurements (MSLT, DSST, Tracking, Memory tests, Body Sway, Leeds Sleep Evaluation Questionnaire)” value is “did not show any signs of residual effects”; the “residual effect on Choice Reaction Time” value is listed as “did not show residual effect”; the “residual effect on Critical Flicker Fusion” value is “did not show residual effect”. Also, the “MSLT, average difference to placebo (longer)” value in data set [4] (last two Sleep Restriction days, p=0.047, 1 sided) was 2.01 min. For the same compound, the “Karolinska Sleepiness Score (KSS), average difference to placebo (less)” value in data set [4] (last two Sleep Restriction days, p=0.058, 1 sided, LDA model) was determined as 0.68. Also, the “SWS, average difference to placebo (longer)” value in data set [4] (last two Sleep Restriction nights, p<0.001, 1 sided) turned out to be 20.53 min. Also, in data set [4] (sleep restriction), the “biophysiological measures of stress (heart rate variability, cortisol levels, catecholamine levels, body temperature) vs placebo” value is “no differences” and the “neurocognitive battery effect sizes (daytime performance)” value is “no strong evidence that gaboxadol improves daytime performance”. Moreover, the “Oral clearance (CL/F) compared with clearance after intravenous administration” value in data set [5] is “of similar magnitude”. In addition, in data set [5] (iv), the “AUC0-inf, dependence on dose” value was “increased with increasing dose”; the “Cmax, dependence on dose” value was “increased with increasing dose”; the “other parameters (CL, t1/2, Vss, fe, and CLR), dependence on dose” value is on record as “independent of dose”; the “steady-state volume of distribution (Vss)” value is recorded as “moderate”. Moreover, in data set [5] (iv), the “systemic clearance (CL)” value is “moderate”. Further, in data set [5] (po), the “other parameters (CL/F, tmax, t1/2, fe, and CLR), dependence on dose” value is “independent of dose”. In data set [5] (po, 20 mg), the “AUC0-inf, dependence on dose” value is reported as “increased with increasing dose” and the “Cmax, dependence on dose” value was “increased with increasing dose”. Moreover, the “effects in sleep onset and sleep maintenance” value in data set [6] is given as “failed to show significant effects”.
Take `Cc1ccc(-c2nc3ccc(C)cn3c2CC(=O)N(C)C)cc1` [zolpidem]: in data set [3] (setting [7]), the effect on driving result is “numerically greater effect”.
As to `CN1CCN(C(=O)OC2c3nccnc3C(=O)N2c2ccc(Cl)cn2)CC1` (centres unmarked) [zopiclone], the “effect on memory test, body sway, DSST or critical tracking” value in data set [3] is listed as “had effect on several of these tests”. Moreover, in data set [3] (evening dose (gaboxadol 15 mg, zopiclone 7.5 mg)), the effect on driving entry is “numerically greater effect”.
